Values after ≈ are worked out from the molar mass of the structure shown.
How the values were obtained:
Mu-type opioid receptor [1] = biological target: T1, Mu-type opioid receptor (Homo sapiens, UniProt P35372); assay: Agonist activity at human MOR expressed in CHOK1 cells assessed as […] of cAMP accumulation at 10 uM incubated for 45 mins by HTRF assay; type: functional, cell-based
Mu-type opioid receptor [2] = biological target: T1, Mu-type opioid receptor; assay: biochemical
Description: Displacement of [3H]-DAMGO from human MOR expressed in CHOK1 cell membranes incubated for 60 mins by liquid scintillation counting method

[3] = biological target: Voltage-gated inwardly rectifying potassium channel KCNH2 (Homo sapiens, UniProt Q12809)
Description: Inhibition of human ERG expressed in CHOK1 cells assessed as reduction in channel current at -80 mV holding potential by whole cell patch clamp assay

Mu-type opioid receptor [4] = biological target: T1, Mu-type opioid receptor; assay: Agonist activity at human MOR expressed in CHOK1 cells assessed as […] of cAMP accumulation incubated for 45 mins by HTRF assay relative to DAMGO; type: functional, cell-based
[5] = biological target: T2, Alpha-1A adrenergic receptor (Homo sapiens) (UniProt P35348); assay: Displacement of [3H]-prazosin from human alpha1A adrenoreceptor expressed in enriched membranes at 1 uM incubated for 90 mins by liquid scintillation counting method relative to control; type: cell membranes
T2 sequence (whole entry): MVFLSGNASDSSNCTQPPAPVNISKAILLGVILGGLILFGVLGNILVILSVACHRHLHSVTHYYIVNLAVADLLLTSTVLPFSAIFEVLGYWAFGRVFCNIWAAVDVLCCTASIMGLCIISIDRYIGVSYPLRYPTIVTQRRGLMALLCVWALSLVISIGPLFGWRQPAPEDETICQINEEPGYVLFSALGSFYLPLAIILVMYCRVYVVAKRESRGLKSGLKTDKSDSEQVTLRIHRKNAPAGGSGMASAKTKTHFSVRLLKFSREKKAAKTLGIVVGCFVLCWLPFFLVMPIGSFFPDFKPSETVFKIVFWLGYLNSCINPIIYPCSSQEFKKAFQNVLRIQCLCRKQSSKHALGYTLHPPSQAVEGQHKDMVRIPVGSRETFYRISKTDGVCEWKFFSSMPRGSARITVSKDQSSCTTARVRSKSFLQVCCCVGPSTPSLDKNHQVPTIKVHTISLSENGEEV

hERG (KCNH2) = hERG (KCNH2) (Homo sapiens, UniProt Q12809); assay: Inhibition of human ERG expressed in CHOK1 cells assessed as reduction in channel current at 10 uM at -80 mV holding potential by whole cell patch clamp assay relative to control; type: cell-based; details: CHO-K1 cells expressing human ERG
[6] = biological target: T3, Sigma non-opioid intracellular receptor 1 (Homo sapiens, UniProt Q99720); assay: Displacement of [3H]-(+)-pentazocine from human sigma-1 receptor expressed in HEK293 membranes incubated for 120 mins by liquid scintillation counting method
Mu-type opioid receptor [7] = biological target: T1, Mu-type opioid receptor; assay: Agonist activity at human MOR expressed in CHOK1 cells assessed as […] of cAMP accumulation incubated for 45 mins by HTRF assay; type: functional, cell-based
Mus musculus [8] = assay: Antinociceptive activity in orally dosed mouse assessed as reduction in mechanical nociception measured after 30 mins post dose by paw pressure pain test; type: functional; details: po, 0.5 h
Mus musculus [9] = assay: Induction of constipation in mouse assessed as effect on intestinal transit at 10 mg/kg, po dosed 30 mins before charcoal suspension dosing and measured after 30 mins; type: organism-based; details: in vivo, 0.5 h
Mu-type opioid receptor [10] = biological target: T1, Mu-type opioid receptor; assay: Displacement of [3H]-DAMGO from human MOR expressed in CHOK1 cell membranes at 10 uM incubated for 60 mins by liquid scintillation counting method
Mu-type opioid receptor [11] = biological target: T1, Mu-type opioid receptor; assay: Agonist activity at human MOR expressed in CHOK1 cells assessed as […] of cAMP accumulation at 1 uM incubated for 45 mins by HTRF assay; type: functional, cell-based
Mu-type opioid receptor [12] = biological target: T1, Mu-type opioid receptor; assay: Displacement of [3H]-DAMGO from human MOR expressed in CHOK1 cell membranes at 1 uM incubated for 60 mins by liquid scintillation counting method
[13] = Thermodynamic solubility in pH 2 buffer; type: physicochemical; details: read-out: Therm_solubility
Cytochrome P450 2E1 = Cytochrome P450 2E1 (Homo sapiens, UniProt P05181); assay: Inhibition of recombinant human CYP2E1 using fluorometric substrate; type: ADME; details: recombinant enzyme
Mus musculus [14] = assay: Antinociceptive activity in ip dosed mouse assessed as reduction in mechanical nociception measured after 30 mins post dose by paw pressure pain test; type: functional; details: 0.5 h
[15] = Thermodynamic solubility in pH 7.4 buffer; type: physicochemical; details: read-out: Therm_solubility
[16] = Clearance in human liver microsomes; type: ADME, Microsome; details: read-out: CLH
[17] = biological target: 5-hydroxytryptamine receptor 2B (Homo sapiens, UniProt P41595); assay: Inhibition of 5HT2B receptor (unknown origin)
[18] = biological target: T4, Alpha-1A adrenergic receptor (Homo sapiens, UniProt P35348); assay: Displacement of [3H]-prazosin from human alpha1A adrenoreceptor expressed in enriched membranes incubated for 90 mins by liquid scintillation counting method; type: cell membranes
T4 sequence (P35348 whole entry): T2 sequence (whole entry)

[19] = Lipophilicity, log Pof the compound; type: physicochemical; details: octanol/water
[20] = Basicity constant, pKa of the compound; type: physicochemical
Cytochrome P450 2C19 = Cytochrome P450 2C19 (Homo sapiens, UniProt P33261); assay: Inhibition of recombinant human CYP2C19 using fluorometric substrate; type: ADME; details: recombinant enzyme
Cytochrome P450 2D6 = Cytochrome P450 2D6 (Homo sapiens, UniProt P10635); assay: Inhibition of recombinant human CYP2D6 using fluorometric substrate; type: ADME; details: recombinant enzyme
Cytochrome P450 2C9 = Cytochrome P450 2C9 (Homo sapiens, UniProt P11712); assay: Inhibition of recombinant human CYP2C9 using fluorometric substrate; type: ADME; details: recombinant enzyme
Cytochrome P450 3A4 = Cytochrome P450 3A4 (Homo sapiens, UniProt P08684); assay: Inhibition of recombinant human CYP3A4 using fluorometric substrate; type: ADME; details: recombinant enzyme
Cytochrome P450 1A2 = biological target: T5, Cytochrome P450 1A2 (Homo sapiens, UniProt P05177); assay: Inhibition of recombinant human CYP1A2 using fluorometric substrate; type: ADME; details: recombinant enzyme
T5 sequence (P05177 whole entry): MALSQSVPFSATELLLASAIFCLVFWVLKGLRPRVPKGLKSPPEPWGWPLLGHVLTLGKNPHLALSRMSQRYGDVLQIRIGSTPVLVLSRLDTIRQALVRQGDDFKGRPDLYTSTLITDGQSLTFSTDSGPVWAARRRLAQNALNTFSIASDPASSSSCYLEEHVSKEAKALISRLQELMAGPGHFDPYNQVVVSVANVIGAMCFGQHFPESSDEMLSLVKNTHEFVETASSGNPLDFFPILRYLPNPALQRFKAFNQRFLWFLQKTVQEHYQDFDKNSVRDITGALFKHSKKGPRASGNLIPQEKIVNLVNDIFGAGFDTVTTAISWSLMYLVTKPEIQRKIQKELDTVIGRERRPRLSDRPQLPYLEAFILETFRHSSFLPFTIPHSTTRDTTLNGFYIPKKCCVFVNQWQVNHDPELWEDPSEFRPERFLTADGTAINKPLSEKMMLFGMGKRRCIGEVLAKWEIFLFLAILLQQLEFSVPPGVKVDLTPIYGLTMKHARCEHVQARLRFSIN

Mus musculus [21] = assay: Induction of constipation in mouse assessed as effect on intestinal transit at 20 mg/kg, ip dosed 30 mins before charcoal suspension dosing and measured after 30 mins; type: organism-based; details: in vivo, 0.5 h
[22] = biological target: T3, Sigma non-opioid intracellular receptor 1; assay: Displacement of [3H]-(+)-pentazocine from human sigma-1 receptor expressed in HEK293 membranes at 1 uM incubated for 120 mins by liquid scintillation counting method relative to control

hERG (KCNH2), sequence (Q12809 whole entry): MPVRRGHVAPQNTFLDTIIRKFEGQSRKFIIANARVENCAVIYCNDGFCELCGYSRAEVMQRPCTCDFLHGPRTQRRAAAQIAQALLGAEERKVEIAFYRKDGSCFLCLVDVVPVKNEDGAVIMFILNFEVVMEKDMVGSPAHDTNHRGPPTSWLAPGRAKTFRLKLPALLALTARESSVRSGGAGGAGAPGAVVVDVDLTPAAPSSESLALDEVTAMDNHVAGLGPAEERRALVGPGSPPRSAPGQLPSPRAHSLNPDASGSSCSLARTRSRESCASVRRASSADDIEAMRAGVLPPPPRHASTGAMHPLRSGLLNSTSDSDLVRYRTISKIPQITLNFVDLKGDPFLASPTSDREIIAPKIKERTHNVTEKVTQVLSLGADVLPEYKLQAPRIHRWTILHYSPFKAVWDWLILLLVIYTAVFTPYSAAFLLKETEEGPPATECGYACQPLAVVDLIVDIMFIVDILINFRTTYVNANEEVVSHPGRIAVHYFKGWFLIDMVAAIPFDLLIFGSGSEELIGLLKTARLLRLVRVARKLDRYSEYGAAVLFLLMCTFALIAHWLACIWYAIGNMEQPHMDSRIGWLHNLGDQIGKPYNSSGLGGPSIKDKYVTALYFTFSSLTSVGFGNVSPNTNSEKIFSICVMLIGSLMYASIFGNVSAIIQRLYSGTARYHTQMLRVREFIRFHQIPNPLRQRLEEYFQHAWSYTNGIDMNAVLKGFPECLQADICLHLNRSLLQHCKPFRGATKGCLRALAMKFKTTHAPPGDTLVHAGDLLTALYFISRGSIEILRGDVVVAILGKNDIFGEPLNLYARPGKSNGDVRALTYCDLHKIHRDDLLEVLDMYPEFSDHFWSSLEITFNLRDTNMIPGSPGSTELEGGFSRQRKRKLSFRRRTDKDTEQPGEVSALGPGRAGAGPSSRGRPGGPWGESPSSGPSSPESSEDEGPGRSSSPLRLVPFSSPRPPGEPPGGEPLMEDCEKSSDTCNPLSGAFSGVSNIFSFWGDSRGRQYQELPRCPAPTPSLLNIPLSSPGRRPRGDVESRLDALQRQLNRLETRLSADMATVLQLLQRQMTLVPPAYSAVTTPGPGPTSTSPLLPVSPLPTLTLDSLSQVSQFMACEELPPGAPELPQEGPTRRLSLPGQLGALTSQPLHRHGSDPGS
Voltage-gated inwardly rectifying potassium channel KCNH2, sequence (Q12809 whole entry): as above
T1 sequence (P35372 whole entry): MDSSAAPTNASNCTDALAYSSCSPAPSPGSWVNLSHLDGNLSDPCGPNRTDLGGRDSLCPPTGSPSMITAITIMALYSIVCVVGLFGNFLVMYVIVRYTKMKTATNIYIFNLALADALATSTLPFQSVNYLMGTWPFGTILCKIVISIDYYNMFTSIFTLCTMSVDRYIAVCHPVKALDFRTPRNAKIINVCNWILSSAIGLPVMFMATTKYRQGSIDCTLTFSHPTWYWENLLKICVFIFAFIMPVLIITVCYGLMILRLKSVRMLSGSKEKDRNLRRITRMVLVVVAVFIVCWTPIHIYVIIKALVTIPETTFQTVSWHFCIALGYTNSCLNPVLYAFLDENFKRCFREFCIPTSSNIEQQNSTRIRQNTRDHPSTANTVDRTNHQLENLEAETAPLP
T3 sequence (Q99720 whole entry): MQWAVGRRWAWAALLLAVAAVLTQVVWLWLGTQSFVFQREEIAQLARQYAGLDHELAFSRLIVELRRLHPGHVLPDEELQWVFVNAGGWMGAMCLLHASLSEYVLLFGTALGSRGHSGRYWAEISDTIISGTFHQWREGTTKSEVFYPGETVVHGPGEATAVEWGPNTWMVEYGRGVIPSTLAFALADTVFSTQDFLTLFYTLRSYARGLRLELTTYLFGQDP
Cytochrome P450 2C9, sequence (P11712 whole entry): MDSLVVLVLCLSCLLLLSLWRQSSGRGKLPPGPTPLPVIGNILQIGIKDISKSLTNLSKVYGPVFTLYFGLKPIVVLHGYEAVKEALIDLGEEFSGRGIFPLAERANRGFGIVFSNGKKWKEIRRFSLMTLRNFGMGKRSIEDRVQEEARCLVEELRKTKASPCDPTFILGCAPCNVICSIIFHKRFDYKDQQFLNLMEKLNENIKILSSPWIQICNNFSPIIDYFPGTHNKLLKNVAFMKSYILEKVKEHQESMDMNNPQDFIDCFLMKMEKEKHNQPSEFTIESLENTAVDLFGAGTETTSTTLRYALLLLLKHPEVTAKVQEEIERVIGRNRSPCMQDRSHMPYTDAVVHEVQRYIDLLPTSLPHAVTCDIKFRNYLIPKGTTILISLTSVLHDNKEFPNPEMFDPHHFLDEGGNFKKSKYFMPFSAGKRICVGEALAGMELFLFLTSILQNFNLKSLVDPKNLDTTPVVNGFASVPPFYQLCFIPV
Cytochrome P450 2D6, sequence (P10635 whole entry): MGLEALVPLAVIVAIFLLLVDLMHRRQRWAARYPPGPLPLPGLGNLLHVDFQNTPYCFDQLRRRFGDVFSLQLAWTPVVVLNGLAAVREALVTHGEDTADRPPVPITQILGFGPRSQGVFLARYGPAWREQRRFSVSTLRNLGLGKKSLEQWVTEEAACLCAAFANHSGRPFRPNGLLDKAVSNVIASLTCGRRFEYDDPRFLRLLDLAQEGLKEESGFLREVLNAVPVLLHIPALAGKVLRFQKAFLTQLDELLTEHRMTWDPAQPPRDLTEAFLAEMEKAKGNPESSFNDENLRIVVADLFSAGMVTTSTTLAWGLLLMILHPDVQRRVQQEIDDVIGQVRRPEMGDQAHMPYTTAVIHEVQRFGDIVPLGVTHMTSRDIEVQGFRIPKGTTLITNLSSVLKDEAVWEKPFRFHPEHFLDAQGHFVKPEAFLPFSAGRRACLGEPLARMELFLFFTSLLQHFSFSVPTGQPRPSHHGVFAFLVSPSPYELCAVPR
5-hydroxytryptamine receptor 2B, sequence (P41595 whole entry): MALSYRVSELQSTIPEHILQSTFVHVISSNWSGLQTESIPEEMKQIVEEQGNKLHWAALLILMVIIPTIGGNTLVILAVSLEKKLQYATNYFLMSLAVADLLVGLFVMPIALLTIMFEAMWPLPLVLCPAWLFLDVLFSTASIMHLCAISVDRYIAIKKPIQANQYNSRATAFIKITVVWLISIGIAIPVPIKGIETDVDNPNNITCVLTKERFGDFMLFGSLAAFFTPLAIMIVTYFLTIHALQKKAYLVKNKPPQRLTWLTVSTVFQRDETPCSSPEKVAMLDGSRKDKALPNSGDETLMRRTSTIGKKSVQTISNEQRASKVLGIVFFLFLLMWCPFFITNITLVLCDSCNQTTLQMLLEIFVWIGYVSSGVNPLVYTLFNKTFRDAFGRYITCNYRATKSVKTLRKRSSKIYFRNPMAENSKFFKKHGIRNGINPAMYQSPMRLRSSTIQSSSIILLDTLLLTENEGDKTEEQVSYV
Cytochrome P450 2E1, sequence (P05181 whole entry): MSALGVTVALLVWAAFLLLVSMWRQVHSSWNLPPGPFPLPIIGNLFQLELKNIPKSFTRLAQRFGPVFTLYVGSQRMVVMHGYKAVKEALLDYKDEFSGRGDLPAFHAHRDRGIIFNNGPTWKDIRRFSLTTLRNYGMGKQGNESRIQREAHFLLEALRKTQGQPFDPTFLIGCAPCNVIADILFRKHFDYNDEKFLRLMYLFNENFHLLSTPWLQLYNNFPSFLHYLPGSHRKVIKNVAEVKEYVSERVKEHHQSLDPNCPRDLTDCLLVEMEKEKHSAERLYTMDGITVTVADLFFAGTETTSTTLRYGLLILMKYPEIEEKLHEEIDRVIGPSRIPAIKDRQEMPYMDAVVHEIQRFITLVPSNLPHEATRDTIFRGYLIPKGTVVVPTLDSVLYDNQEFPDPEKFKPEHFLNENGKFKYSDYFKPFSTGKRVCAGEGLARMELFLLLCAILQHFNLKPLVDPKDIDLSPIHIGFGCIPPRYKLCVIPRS

| Structure (SMILES) | Ki (Mu-type opioid receptor [2]) [nM] | inhibition [5] [%] | Ki [6] [nM] | EC50 (Mu-type opioid receptor [7]) [nM] | Activity (Mu-type opioid receptor [11]) [%] | inhibition (Mu-type opioid receptor [12]) [%] | other results |
| --- | --- | --- | --- | --- | --- | --- | --- |
| Cc1cc(OCCN2CCOCC2)nn1-c1ccc2ccccc2c1 | – | – | – | – | – | – | Activity (Mu-type opioid receptor [1]): < 50% |
| CC(=O)Nc1cccc(CCN2CCC3(CC2)CN(c2ccccc2)C(=O)[C@@H](C)O3)c1 | 46 | 90 | 205 | 69 | – | – | IC50 [3]: > 10000 nM; Emax (Mu-type opioid receptor [4]): 95%; inhibition at 10 µM (hERG (KCNH2)): < 50% |
| COc1ccc2c3c1O[C@H]1C(=O)CC[C@@]4(O)[C@@H](C2)N(C)CC[C@]314 [OXYCODONE] | – | – | – | – | – | – | ED50 (Mus musculus [8]): 4.3 mg/kg; Activity (Mus musculus [9]): Toxic |
| O=C(CCCN1CCC(O)(c2ccc(Cl)cc2)CC1)c1ccc(F)cc1 | – | – | – | – | – | – | Activity (Mu-type opioid receptor [1]): < 50%; inhibition (Mu-type opioid receptor [10]): < 50% |
| CC(=O)Nc1ccc(CCN2CCC3(CC2)CN(c2ccccc2)C(=O)C(C)O3)cc1 (stereo unspecified) | > 1000 | 60 | 237 | > 1000 | < 50 | < 50 | – |
| O=C1N(c2cccnc2C(F)(F)F)CC2(CCN(CCc3ccccc3F)CC2)OC12CC2 | – | – | – | – | – | – | solubility thermodynamic [13]: 2630 µg/mL (≈ 5.67 mM); inhibition (INH) (Cytochrome P450 2E1): < 50%; ED50 (Mus musculus [14]): 15 mg/kg; solubility thermodynamic [15]: 160 µg/mL (≈ 0.345 mM); microsomal CLint [16]: 20 µL/min/mg; IC50 [3]: > 10000 nM; Ki [17]: 754 nM; Ki [18]: 470 nM; logP [19]: 3.41; pKa [20]: 7.82; inhibition at 10 µM (hERG (KCNH2)): < 50%; inhibition (INH) (Cytochrome P450 2C19): < 50%; inhibition (INH) (Cytochrome P450 2D6): < 50%; inhibition (INH) (Cytochrome P450 2C9): < 50%; inhibition (INH) (Cytochrome P450 3A4): < 50%; inhibition (INH) (Cytochrome P450 1A2): < 50%; Activity (Mus musculus [21]): Non-Toxic |
| O=C(O)CC1OC2(CCN(CCc3ccccc3)CC2)CN(c2ccccc2)C1=O (stereo unspecified) | > 1000 | – | > 1000 | > 1000 | < 50 | < 50 | inhibition [22]: < 50% |
| CC1OC2(CCN(CCc3ccccc3)CC2)CN(c2ccc(C(F)(F)F)nc2)C1=O (stereo unspecified) | > 1000 | 66 | 9 | > 1000 | < 50 | < 50 | – |
| COc1ccc(N2CC3(CCN(CCc4ccccc4)CC3)OC(C)C2=O)cc1 (stereo unspecified) | > 1000 | 69 | 14 | > 1000 | < 50 | < 50 | – |
| CC1OC2(CCN(CCc3ccccc3)CC2)CN(c2ccncc2)C1=O (stereo unspecified) | > 1000 | 68 | 88 | > 1000 | < 50 | < 50 | – |
| CC(=O)Nc1cccc(CCN2CCC3(CC2)CN(c2ccccc2)C(=O)C(C)O3)c1 (racemic) | 144 | 88 | 147 | 343 | – | – | IC50 [3]: > 10000 nM; Emax (Mu-type opioid receptor [4]): 96%; inhibition at 10 µM (hERG (KCNH2)): < 50% |

Source: ChEMBL document CHEMBL4354824, “4-Aryl-1-oxa-4,9-diazaspiro[5.5]undecane Derivatives as Dual μ-Opioid Receptor Agonists and σ1 Receptor Antagonists for the Treatment of Pain” (J Med Chem, 2020)
